Data on one compound can be found in patent US9265754B2, “Use of 1-{4-[1-(4-cyclohexyl-3-trifluoromethyl-benzyloxyimino)-ethyl]-2-ethyl-benzyl}-azetidine-3-carboxylic acid in treating symptoms associated with rett syndrome” (Novartis AG, priority 2007, dated 2016).

One assay deals with BDNF. Put plainly: In vivo S1P receptor modulator induced BDNF production (Western blot of cortex). To be noted: female DA rats. On the set-up: species or system rat. The text has this: Shown on the y-axis is the relative intensity of BDNF signal of animals treated with FTY720 vs control animals that had received vehicle (i.e., ratio of signal from FTY720-treated rats divided by signal from vehicle-treated rats, n=3 rats/group). On the x axis, the first two bars come from the frontal cortex, the second two from the parietal cortex and in each case the white bar represents the vehicle treated animals and the black bar represents the FTY720 treated animals.
N=3 animals each were treated with either vehicle, 0.1 mg/kg/d FTY720, 0.3 mg/kg/d FTY720 or 1 mg/kg/d FTY720.
Female DA rats were treated for 9 days (5 days, 2 day pause, 4 days) with FTY720 p.o.
Expt 1: 0.3 mg/kg/d vs. vehicle.
One day after the last treatment, the rats were perfused with ice-cold PBS and different CNS regions were isolated.
Female DA rats were treated for 9 days (5 days, 2 day pause, 4 days) with FTY720 p.o. 0.1; 0.3 or 1 mg/kg/d vs vehicle
A general note: A western blot detects proteins with antibodies after separation by electrophoresis.

The test system of assay [1] is patients with relapsing MS. Put plainly: Phase II trial in relapsing MS: depressive symptoms by Beck Depression Inventory second edition (BDI-II). The class given is in vivo, human. To be noted: for BDI-II score, change from baseline during core study: 6 months core study. How it is done:
In this study, depressive symptoms were assessed by means of the Beck Depression Inventory second edition (BDI-II).
Patients with relapsing MS (relapsing-remitting or secondary progressive) were randomized to receive placebo or FTY720 1.25 or 5 mg/day, for 6 months (the core study). At the end of this period, placebo-treated patients were re-randomized to one of the two FTY720 doses, while those originally randomized to FTY720 continued treatment at the same doses. After approximately 18-24 months, patients receiving FTY720 5 mg, were switched to 1.25 mg in view of evidence that the higher dose conferred no efficacy benefit over the lower dose.
The BDI-II was administered at baseline, and at 3 and 6 months during the core study and at 12 and 24 months during the extension phase (i.e. 6 and 18 months after the start of the extension phase). This is a 21-item self-report scale measuring various symptoms and attitudes associated with depression. Respondents rate depressive symptoms experienced during the past two weeks on a 4-point scale, coded 0 to 3 by increasing order of severity. A total score across all 21 items can be generated, with lower total scores indicating lower overall severity of depressive symptoms. BDI-II total scores of 14 or above are indicative of clinical depression. Ny reduction in the BDI-II score indicated an improvement in depression.
Of the 281 patients originally randomized to treatment, 255 completed the core study. BDI-II scores at baseline and 6 months were available in 239 patients.

The test system of assay [2] is patients with relapsing MS. The conditions noted are these: cited from earlier work.
Where [3] appears, read: 281 patients with relapsing MS, 6 months, 1.25 and 5 mg once daily.

Turning to `CCCCCCCCc1ccc(CCC(N)(CO)CO)cc1` [FTY720, 2-amino-2-[2-(4-octylphenyl)ethyl]propane-1,3-diol], the “BDNF in the cortex (relative intensity of BDNF signal vs vehicle)” value with BDNF (9-day treatment, 0.3 mg/kg/d p.o., frontal and parietal cortex, FIG. 1) is “induction of BDNF”. In the assay with BDNF (9-day treatment, 0.1, 0.3 or 1 mg/kg/d p.o., FIGS. 2A-2B), the “BDNF in the cortex, multiple doses” value is given as “induction of BDNF”. In addition, the “BDI-II score, change from baseline during core study” value was “decreased from baseline” in assay [1] (1.25 mg/day) and “remained consistent” in assay [1] (5.0 mg/day). Further, the “change in BDI-II scores from baseline vs placebo-treated patients” value in assay [1] (1.25 mg/day, at 6 months) is “significantly greater”. For the same compound, the “difference in changes in BDI-II scores between the two doses” value in assay [1] (1.25 vs 5.0 mg/day, 5% level) was “not significant”. The “reduction of annualized relapse rate compared with placebo” value in assay [2] (setting [3]) was “more than 50%”. Also, in assay [2] (setting [3]), the “reduction of gadolinium-enhanced MRI lesions compared with placebo” value is “up to 80%”. Moreover, the “low disease activity on MRI and relapses during dose-blinded extension phase” value in assay [2] (patients treated for up to 24 months) was “sustained”.
